ChEMBL document CHEMBL6087462, “Cuminaldehyde Potentiates Antiproteolytic Peptide Efficacy via Parallel Pathways of Enhanced Inner Membrane-Damaging Activity and Inhibition of Bacterial Energy Metabolism” (J Med Chem, 2025)

Assays:
Salmonella typhimurium [1] = experiment: Antimicrobial activity against Salmonella typhimurium ATCC 14028 assessed as reduction in microbial growth in presence of cuminaldehyde by CLSI based broth microdilution method; assay type: functional, Salmonella enterica subsp. enterica serovar Typhimurium; conditions: Salmonella enterica
Escherichia coli [2] = experiment: Antimicrobial activity against Escherichia coli K88 assessed as cuminaldehyde MIC by CLSI based broth microdilution method; assay type: functional
Escherichia coli [3] = experiment: Synergistic antimicrobial activity against Escherichia coli UB1005 assessed as fractional inhibitory concentration index in presence of citronellal by checkerboard broth microdilution assay; assay type: functional
Escherichia coli [4] = experiment: Synergistic antimicrobial activity against Escherichia coli 25922 assessed as fractional inhibitory concentration index in presence of thymol by checkerboard broth microdilution assay; assay type: functional
Staphylococcus aureus [5] = experiment: Antimicrobial activity against Staphylococcus aureus ATCC 29213 assessed as cuminaldehyde MIC by CLSI based broth microdilution method; assay type: functional
Escherichia coli [6] = experiment: Synergistic antimicrobial activity against Escherichia coli 25922 assessed as fractional inhibitory concentration index in presence of citral by checkerboard broth microdilution assay; assay type: functional
Staphylococcus aureus [7] = experiment: Antimicrobial activity against Staphylococcus aureus ATCC 29213 assessed as reduction in microbial growth in presence of cuminaldehyde by CLSI based broth microdilution method; assay type: functional
[8] = Synergistic antimicrobial activity against Salmonella enterica subsp. enterica serovar Pullorum 7913 assessed as fractional inhibitory concentration index in presence of carvacrol by checkerboard broth microdilution assay; assay type: functional
Escherichia coli [9] = experiment: Antimicrobial activity against Escherichia coli 078 assessed as cuminaldehyde MIC by CLSI based broth microdilution method; assay type: functional; conditions: 78
[10] = Antimicrobial activity against Salmonella enterica subsp. enterica serovar Pullorum ATCC 7913 assessed as cuminaldehyde MIC by CLSI based broth microdilution method; assay type: functional
Escherichia coli [11] = experiment: Synergistic antimicrobial activity against Escherichia coli 078 assessed as fractional inhibitory concentration index in presence of carvacrol by checkerboard broth microdilution assay; assay type: functional, 78
Escherichia coli [12] = experiment: Drug resistance, ratio of MIC for Escherichia coli ATCC 25922 after 30 passages to MIC for Escherichia coli ATCC 25922 […] after initial exposure; assay type: functional
Staphylococcus aureus [13] = experiment: Synergistic antimicrobial activity against Staphylococcus aureus 43300 assessed as fractional inhibitory concentration index in presence of thymol by checkerboard broth microdilution assay; assay type: functional
[14] = Synergistic antimicrobial activity against Salmonella enterica subsp. enterica serovar Pullorum 7913 assessed as fractional inhibitory concentration index in presence of citronellal by checkerboard broth microdilution assay; assay type: functional
Enterococcus faecalis [15] = experiment: Synergistic antimicrobial activity against Enterococcus faecalis 29212 assessed as fractional inhibitory concentration index in presence of citral by checkerboard broth microdilution assay; assay type: functional
Staphylococcus aureus [16] = experiment: Antimicrobial activity against Staphylococcus aureus ATCC 25923 assessed as reduction in microbial growth in presence of cuminaldehyde by CLSI based broth microdilution method; assay type: functional
Pseudomonas aeruginosa = experiment: Antimicrobial activity against Pseudomonas aeruginosa ATCC 27853 assessed as reduction in microbial growth in presence of cuminaldehyde by CLSI based broth microdilution method; assay type: functional
Escherichia coli [17] = experiment: Synergistic antimicrobial activity against Escherichia coli UB1005 assessed as fractional inhibitory concentration index in presence of carvacrol by checkerboard broth microdilution assay; assay type: functional
[18] = Antimicrobial activity against Salmonella enterica subsp. enterica serovar Pullorum ATCC 7913 assessed as reduction in microbial growth in presence of cuminaldehyde by CLSI based broth microdilution method; assay type: functional
Salmonella typhimurium [19] = experiment: Antimicrobial activity against Salmonella typhimurium ATCC 14028 assessed as reduction in microbial growth by CLSI based broth microdilution method; assay type: functional, Salmonella enterica subsp. enterica serovar Typhimurium; conditions: Salmonella enterica
[20] = Synergistic antimicrobial activity against Salmonella enterica subsp. enterica serovar Pullorum ATCC 7913 assessed as fractional inhibitory concentration by checkerboard broth microdilution assay; assay type: functional
Escherichia coli [21] = experiment: Synergistic antimicrobial activity against Escherichia coli 25922 assessed as fractional inhibitory concentration index in presence of perillaldehyde by checkerboard broth microdilution assay; assay type: functional
Staphylococcus aureus [22] = experiment: Synergistic antimicrobial activity against Staphylococcus aureus 43300 assessed as fractional inhibitory concentration by checkerboard broth microdilution assay; assay type: functional
Enterococcus faecalis [23] = experiment: Synergistic antimicrobial activity against Enterococcus faecalis 29212 assessed as fractional inhibitory concentration index in presence of carvacrol by checkerboard broth microdilution assay; assay type: functional
Escherichia coli [24] = experiment: Synergistic antimicrobial activity against Escherichia coli 078 assessed as fractional inhibitory concentration index in presence of perillaldehyde by checkerboard broth microdilution assay; assay type: functional, 78
Enterococcus faecalis [25] = experiment: Synergistic antimicrobial activity against Enterococcus faecalis 29212 assessed as fractional inhibitory concentration index in presence of perillaldehyde by checkerboard broth microdilution assay; assay type: functional
Staphylococcus aureus [26] = experiment: Synergistic antimicrobial activity against Staphylococcus aureus 43300 assessed as fractional inhibitory concentration index in presence of perillaldehyde by checkerboard broth microdilution assay; assay type: functional
Staphylococcus aureus [27] = experiment: Synergistic antimicrobial activity against Staphylococcus aureus 29213 assessed as fractional inhibitory concentration index in presence of carvacrol by checkerboard broth microdilution assay; assay type: functional
[28] = test system: Staphylococcus epidermidis; experiment: Antimicrobial activity against Staphylococcus epidermidis ATCC 12228 assessed as reduction in microbial growth by CLSI based broth microdilution method; assay type: functional
Escherichia coli [29] = experiment: Synergistic antimicrobial activity against Escherichia coli UB1005 assessed as fractional inhibitory concentration index in presence of cuminaldehyde by checkerboard broth microdilution assay; assay type: functional
Escherichia coli [30] = experiment: Antimicrobial activity against Escherichia coli K88 assessed as reduction in microbial growth in presence of cuminaldehyde by CLSI based broth microdilution method; assay type: functional
Enterococcus faecalis [31] = experiment: Synergistic antimicrobial activity against Enterococcus faecalis 29212 assessed as fractional inhibitory concentration index in presence of cuminaldehyde by checkerboard broth microdilution assay; assay type: functional
Escherichia coli [32] = experiment: Synergistic antimicrobial activity against Escherichia coli K99 assessed as fractional inhibitory concentration index in presence of citronellal by checkerboard broth microdilution assay; assay type: functional
Staphylococcus aureus [33] = experiment: Synergistic antimicrobial activity against Staphylococcus aureus 29213 assessed as fractional inhibitory concentration index in presence of citronellal by checkerboard broth microdilution assay; assay type: functional
Salmonella typhimurium [34] = experiment: Synergistic antimicrobial activity against Salmonella typhimurium 7731 assessed as fractional inhibitory concentration index in presence of carvacrol by checkerboard broth microdilution assay; assay type: functional, Salmonella enterica subsp. enterica serovar Typhimurium
Staphylococcus aureus [35] = experiment: Synergistic antimicrobial activity against Staphylococcus aureus 25923 assessed as fractional inhibitory concentration index in presence of citronellal by checkerboard broth microdilution assay; assay type: functional
[36] = Synergistic antimicrobial activity against Salmonella enterica subsp. enterica serovar Pullorum 7913 assessed as fractional inhibitory concentration index in presence of citral by checkerboard broth microdilution assay; assay type: functional
Salmonella typhimurium [37] = experiment: Synergistic antimicrobial activity against Salmonella typhimurium 14028 assessed as fractional inhibitory concentration index in presence of carvacrol by checkerboard broth microdilution assay; assay type: functional, Salmonella enterica subsp. enterica serovar Typhimurium
Salmonella typhimurium [38] = experiment: Antimicrobial activity against Salmonella typhimurium ATCC 7731 assessed as reduction in microbial growth in presence of cuminaldehyde by CLSI based broth microdilution method; assay type: functional, Salmonella enterica subsp. enterica serovar Typhimurium; conditions: Salmonella enterica
Salmonella typhimurium [39] = experiment: Synergistic antimicrobial activity against Salmonella typhimurium 14028 assessed as fractional inhibitory concentration index in presence of perillaldehyde by checkerboard broth microdilution assay; assay type: functional, Salmonella enterica subsp. enterica serovar Typhimurium
Escherichia coli [40] = experiment: Synergistic antimicrobial activity against Escherichia coli UB1005 assessed as fractional inhibitory concentration index in presence of citral by checkerboard broth microdilution assay; assay type: functional
[41] = test system: Staphylococcus epidermidis; experiment: Synergistic antimicrobial activity against Staphylococcus epidermidis 12228 assessed as fractional inhibitory concentration index in presence of thymol by checkerboard broth microdilution assay; assay type: functional

CC[C@H](C)[C@H](NC(=O)[C@@H](NC(=O)[C@@H](CCCNC(=N)N)NC(=O)[C@H](C)NC(=O)[C@H](C)NC(=O)[C@@H](N)Cc1cccc2ccccc12)[C@@H](C)CC)C(=O)N[C@@H](CC(C)C)C(=O)N[C@H](CCCNC(=N)N)C(=O)N[C@@H](Cc1c[nH]c2ccccc12)C(=O)N[C@H](CCCNC(=N)N)C(=O)N[C@@H](Cc1ccccc1)C(=O)N[C@@H](CCCNC(=N)N)C(=O)O
MIC (Salmonella typhimurium [1]): 0.5 µg/mL
MIC (Escherichia coli [2]): 1020 µg/mL
fractional inhibitory concentration index (FICI) (Escherichia coli [3]): 0.266
fractional inhibitory concentration index (FICI) (Escherichia coli [4]): 0.313
MIC (Staphylococcus aureus [5]): 512 µg/mL
fractional inhibitory concentration index (FICI) (Escherichia coli [6]): 0.25
MIC (Staphylococcus aureus [7]): 2 µg/mL
fractional inhibitory concentration index (FICI) [8]: 0.625
MIC (Escherichia coli [9]): 1020 µg/mL
MIC [10]: 1020 µg/mL
fractional inhibitory concentration index (FICI) (Escherichia coli [11]): 0.5
Ratio (Escherichia coli [12]): 2
fractional inhibitory concentration index (FICI) (Staphylococcus aureus [13]): 0.75
fractional inhibitory concentration index (FICI) [14]: 0.25
fractional inhibitory concentration index (FICI) (Enterococcus faecalis [15]): 0.375
MIC (Staphylococcus aureus [16]): 8 µg/mL
MIC (Pseudomonas aeruginosa): 2 µg/mL
fractional inhibitory concentration index (FICI) (Escherichia coli [17]): 0.313
MIC [18]: 0.5 µg/mL
MIC (Salmonella typhimurium [19]): 4 µg/mL
FIC [20]: 0.125
fractional inhibitory concentration index (FICI) (Escherichia coli [21]): 0.156
FIC (Staphylococcus aureus [22]): 0.25
fractional inhibitory concentration index (FICI) (Enterococcus faecalis [23]): 0.375
fractional inhibitory concentration index (FICI) (Escherichia coli [24]): 0.188
fractional inhibitory concentration index (FICI) (Enterococcus faecalis [25]): 0.625
fractional inhibitory concentration index (FICI) (Staphylococcus aureus [26]): 0.75
fractional inhibitory concentration index (FICI) (Staphylococcus aureus [27]): 0.313
MIC [28]: 4 µg/mL
fractional inhibitory concentration index (FICI) (Escherichia coli [29]): 0.188
MIC (Escherichia coli [30]): 2 µg/mL
fractional inhibitory concentration index (FICI) (Enterococcus faecalis [31]): 0.313
fractional inhibitory concentration index (FICI) (Escherichia coli [32]): 0.516
fractional inhibitory concentration index (FICI) (Staphylococcus aureus [33]): 0.94
fractional inhibitory concentration index (FICI) (Salmonella typhimurium [34]): 0.5
fractional inhibitory concentration index (FICI) (Staphylococcus aureus [35]): 0.25
fractional inhibitory concentration index (FICI) [36]: 0.25
fractional inhibitory concentration index (FICI) (Salmonella typhimurium [37]): 0.5
MIC (Salmonella typhimurium [38]): 0.5 µg/mL
fractional inhibitory concentration index (FICI) (Salmonella typhimurium [39]): 0.254
fractional inhibitory concentration index (FICI) (Escherichia coli [40]): 0.257
fractional inhibitory concentration index (FICI) [41]: 0.75
